Patent US8524636B2 (Dow Global Technologies LLC, priority 2010, dated 2013)
Read-outs that look alike come from different tables or passages of the source.

What was measured:
[1] = test system: green algae (Selenastrum capricornutum); conditions: cited from earlier work
[2] = test system: Alternaria alternata mixed with Aureobasidium pullulans; assay: Fungal efficacy on dry paint film (Modified ASTM 5590), pool Aa + Ap; format: cell-based
Description: (§1) A single biocide or blend of biocides was post added into white acrylic latex paint free of biocides to give a maximum total active ingredient/s concentration tested. This paint was then diluted with a biocide free acrylic latex paint to give targeted concentrations for the testing. Depending on the type of biocide blends tested, the total biocides concentrations varies from 400 to 3300 ppm. After biocides addition or dilution, each sample was hand mixed for at least a minute until uniformity was achieved. Each of the paint samples as well as a control sample (containing no biocide) were used to prepare films on black plastic-vinyl chloride/acetate copolymer panels (Leneta Company, Mahwah, N.J.) using a 0.0762 mm (3 mil) bird bar applicator. The panels were thoroughly dried for at least 2 days avoiding direct exposure to sunlight. Square discs (0.5 inch^2; 1.27 cm^2) were cut out from each panel and were used as the substrate for fungal and algal efficacy tests. This sample size allowed for an agar border when the sample disc was placed into the well of the test plate. Each sample was tested in duplicate.
(§2) The appropriate media (BOLD'S 3N for Chlorophytes, BG-11 for Cyanobacteria, and PDA for fungi) were used to support microbial growth. The test plates were maintained at room temp (25° C.-26° C.), in a cycled light-dark environment, for four weeks for algae. Plates for fungal challenge tests were maintained at 30° C. for four weeks. At the end of the incubation period the samples were scored for percent area covered by visible microbial growth.
(§3) Fungal efficacy was tested as follows (Modified ASTM 5590).
ASTM 5590 is a standard accelerated test method for determining resistance of various coatings (including paints) to fungal defacement. To accommodate for high-throughput screening, this method was scaled down from petri plates to 6-well plates. To set up the test, an agar plug was placed at the bottom of each well of the sterile 6-well plate. A single coupon was placed with a pair of sterile forceps at the center of the agar plug (on top) with the painted surface facing upwards. Fungal inoculums were prepared by mixing equal concentrations (approximately 1×10^6 cfu/ml) and equal volumes (depending on number of samples to be tested) of like growing organisms. For this synergy study, three pools of mixed fungi were prepared as the test inoculum. Cladosporium herbarum was mixed with Trichoderma viride, Aspergillus niger was mixed with Penicillium funiculosum and Alternaria alternata was mixed with Aureobasidium pullulans. […] The total percent area covered was evaluated and recorded at the end of each week and recorded in increments of 5%.
(§4) The SI is calculated based on F. C. […]

[3] = test system: Gloeocapsa sp. and Oscillatoria sp.; assay: Algal efficacy on dry paint film (Modified ASTM 5589), pool Gs + Os; format: cell-based
Description: as §1, §2
Algal efficacy was tested as follows (Modified ASTM 5589).
ASTM 5589 is a standard accelerated test method for determining resistance of various coatings (including paints) to algal defacement. To accommodate for high-throughput screening, this method was scaled down from petri plates to 6-well plates. A single coupon was placed with a pair of sterile forceps at the center of the agar plug (on top) with the painted surface facing upwards. Algal inoculums were prepared by mixing equal concentrations (approximately 1×10^6 cfu/ml) and equal volumes (depending on number of samples to be inoculated) of like growing organisms.
In this synergy study, three pool of mixed algae were prepared as the test inoculum, Gloeocapsa sp. and Oscillatoria sp. a mix of cyanobacteria grown on BG-11 media; Chlorella sp., Chlorella kessleri, and Nostoc commune are unicellular chlorphytes that were mixed and grown on Bold media; Trentepohlia aurea, Tretepohlia odorata, and Calotrix parientina are filamentous algae that were mixed and grown on Bold media.
Each well that contained a tested coupon was inoculated with 400 μl of organism mixture (approximately 1×10^6 cfu/ml) making sure that the whole surface (paint film as well as the agar surrounding it) was evenly covered. The plates were incubated at room temp (25° C.-26° C.) with cyclic exposure to light (OTT-Lite model # OTL4012P, 40 Watt, 26 KLumen) and dark phases, for a period of four weeks. The total area covered was evaluated at the end of each week according to percent area covered in 5% increments.
(§5) The SI is calculated based on F. C. Kull et.
(§6) SI value of <1 in the formula indicates a synergism of the blended biocides exists.
(§7) NE=no end point at the concentration tested that will meet the percent inhibition criteria set in each SI calculation.

[4] = test system: Aspergillus niger mixed with Penicillium funiculosum; assay: Fungal efficacy on dry paint film (Modified ASTM 5590), pool An + Pf; format: cell-based; conditions: for % Inhibition, An + Pf: dry film, four weeks
Description: as §1, §2, §3
ASTM 5590 is a standard accelerated test method for determining resistance of various coatings (including paints) to fungal defacement. To accommodate for high-throughput screening, this method was scaled down from petri plates to 6-well plates. To set up the test, an agar plug was placed at the bottom of each well of the sterile 6-well plate. A single coupon was placed with a pair of sterile forceps at the center of the agar plug (on top) with the painted surface facing upwards. Fungal inoculums were prepared by mixing equal concentrations (approximately 1×10^6 cfu/ml) and equal volumes (depending on number of samples to be tested) of like growing organisms. For this synergy study, three pools of mixed fungi were prepared as the test inoculum. Cladosporium herbarum was mixed with Trichoderma viride, Aspergillus niger was mixed with Penicillium funiculosum and Alternaria alternata was mixed with Aureobasidium pullulans. Each well was inoculated with 400 microliter of organism mixture (approximately 1×10^6 cfu/ml) making sure that the whole surface (paint film as well as the agar surrounding it) was evenly covered. The plates were incubated at 30° C. in presence of moisture, for a period of four weeks. The total percent area covered was evaluated and recorded at the end of each week and recorded in increments of 5%.
as §5, §6, §7

[5] = test system: Cladosporium herbarum mixed with Trichoderma viride; assay: Fungal efficacy on dry paint film (Modified ASTM 5590), pool TV + Ch; format: cell-based
Description: as §1, §2, §3
ASTM 5590 is a standard accelerated test method for determining resistance of various coatings (including paints) to fungal defacement. To accommodate for high-throughput screening, this method was scaled down from petri plates to 6-well plates. […] The total percent area covered was evaluated and recorded at the end of each week and recorded in increments of 5%.
as §4

[6] = Total conc 750 ppm (synergy table)
[7] = Total conc 1500 ppm (synergy table)
[8] = Conc. 1500 ppm in paint, dry film, four weeks
[9] = Conc. 2500 ppm in paint, dry film, four weeks
[10] = Total conc 2500 ppm (synergy table)
[11] = Conc. 750 ppm in paint, dry film, four weeks

O=C(O)CNCP(=O)(O)O [Glyphosate, N-(phosphonomethyl)glycine]
EbC50 (median effective concentration for biomass) ([1]; 72 hr): 485 mg/L | ErC50 (median effective concentration for growth rate) ([1]; 72 hr): 460 mg/L | EbC50 (median effective concentration for biomass) ([1]; 7 day): 13.8 mg/L

CCCCNC(=O)OCC#CI [IPBC, 3-iodo-2-propynyl-butylcarbamate, reference compound]
% inhibition, Aa + Ap [2, 6]: 90% | % Inhibition, Gs + Os [3, 7]: 82.5% | % inhibition, AnPf [4, 6]: 65% | % Inhibition, TV + Ch [5, 7]: 75%

Zinc Glyphosate
% inhibition, Aa + Ap [2, 8]: 47.5% | % inhibition, Aa + Ap [2, 9]: 70% | % inhibition, Aa + Ap [2, 10]: 70% | % Inhibition, Gs + Os [3, 11]: 15% | % Inhibition, Gs + Os [3, 8]: 72.5% | % Inhibition, Gs + Os [3, 9]: 90% | % Inhibition, Gs + Os [3, 7]: 72.5% | % Inhibition, An + Pf ([4]; Conc. 750 ppm in paint): 20% | % Inhibition, An + Pf ([4]; Conc. 1500 ppm in paint): 27.5% | % Inhibition, An + Pf ([4]; Conc. 2500 ppm in paint): 30% | % inhibition, AnPf [4, 10]: 30% | % Inhibition, TV + Ch [5, 11]: 50% | % Inhibition, TV + Ch [5, 9]: 90%
